Data from publication PMC6815239 (Nature chemistry, 2019).

Experiments:
MalA = MalA (Malbranchea aurantiaca, UniProt L0E155); experiment: LC/MS halogenation assay; type: biochemical; conditions: full pathway reconstitution, NaCl
MalG R = MalG R (Malbranchea aurantiaca, UniProt L0E2Z1); experiment: LC/MS product formation; type: biochemical; conditions: substrate analog 23 loaded on MalG T2
PhqE [1] = target: T1, PhqE (Penicillium fellutanum, UniProt L0E2Z4); experiment: X-ray crystal structure, […] Å; type: binding; conditions: complex with (+)-premalbrancheamide
PhqE [2] = target: T1, PhqE; experiment: X-ray crystal structure; type: binding; conditions: crystals grown with NAD+
MalB = target: T2, MalB (Malbranchea aurantiaca, UniProt L0E2Y5); experiment: prenyltransferase assay, LC/MS; type: biochemical; conditions: substrate-loaded MalG domains, NADPH
T2 sequence (L0E2Y5 1-369): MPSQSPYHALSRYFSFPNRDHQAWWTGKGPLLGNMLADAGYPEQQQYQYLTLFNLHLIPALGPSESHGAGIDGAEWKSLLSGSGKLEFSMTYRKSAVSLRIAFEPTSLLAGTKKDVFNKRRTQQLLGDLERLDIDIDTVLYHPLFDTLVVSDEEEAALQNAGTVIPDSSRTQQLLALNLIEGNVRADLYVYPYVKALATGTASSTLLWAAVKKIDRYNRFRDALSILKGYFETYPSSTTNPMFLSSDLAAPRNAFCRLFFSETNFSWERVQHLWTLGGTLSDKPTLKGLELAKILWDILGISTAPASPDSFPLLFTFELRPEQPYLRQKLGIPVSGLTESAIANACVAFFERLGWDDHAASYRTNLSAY

MalE = target: T3, MalE (Malbranchea aurantiaca, UniProt L0E2P7); experiment: prenyltransferase assay, LC/MS; type: biochemical; conditions: substrate-loaded MalG domains, NADPH
T3 sequence (L0E2P7 1-438): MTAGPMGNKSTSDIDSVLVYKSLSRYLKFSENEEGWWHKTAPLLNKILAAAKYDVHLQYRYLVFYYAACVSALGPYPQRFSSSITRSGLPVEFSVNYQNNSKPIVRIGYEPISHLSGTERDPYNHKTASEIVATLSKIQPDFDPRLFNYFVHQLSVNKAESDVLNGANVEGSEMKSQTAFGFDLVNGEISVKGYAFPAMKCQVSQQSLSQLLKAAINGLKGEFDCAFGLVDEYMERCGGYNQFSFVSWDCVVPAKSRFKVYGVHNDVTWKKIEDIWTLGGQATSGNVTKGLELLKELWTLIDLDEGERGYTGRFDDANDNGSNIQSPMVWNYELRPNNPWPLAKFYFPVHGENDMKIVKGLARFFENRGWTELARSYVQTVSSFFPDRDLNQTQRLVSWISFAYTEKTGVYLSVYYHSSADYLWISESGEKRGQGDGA

T1 sequence (L0E2Z4 whole entry): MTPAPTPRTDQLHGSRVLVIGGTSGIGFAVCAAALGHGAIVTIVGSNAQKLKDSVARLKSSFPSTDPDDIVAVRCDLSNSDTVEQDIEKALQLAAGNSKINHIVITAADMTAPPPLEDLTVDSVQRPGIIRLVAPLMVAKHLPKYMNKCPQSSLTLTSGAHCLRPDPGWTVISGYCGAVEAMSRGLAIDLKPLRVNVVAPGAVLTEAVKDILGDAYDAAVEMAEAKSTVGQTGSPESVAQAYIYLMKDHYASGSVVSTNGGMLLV
Sequence of MalG R (L0E2Z1 1950-2345): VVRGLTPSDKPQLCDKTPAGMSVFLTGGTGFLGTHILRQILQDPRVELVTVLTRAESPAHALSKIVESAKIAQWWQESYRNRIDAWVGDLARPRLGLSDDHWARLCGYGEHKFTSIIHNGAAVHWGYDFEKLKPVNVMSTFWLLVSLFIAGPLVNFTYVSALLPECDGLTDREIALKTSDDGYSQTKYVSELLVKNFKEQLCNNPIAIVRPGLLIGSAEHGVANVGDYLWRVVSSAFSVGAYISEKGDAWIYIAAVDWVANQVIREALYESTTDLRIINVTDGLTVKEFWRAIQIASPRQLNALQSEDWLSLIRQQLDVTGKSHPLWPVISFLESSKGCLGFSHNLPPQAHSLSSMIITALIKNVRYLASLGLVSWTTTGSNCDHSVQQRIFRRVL
Sequence of MalA (L0E155 whole entry): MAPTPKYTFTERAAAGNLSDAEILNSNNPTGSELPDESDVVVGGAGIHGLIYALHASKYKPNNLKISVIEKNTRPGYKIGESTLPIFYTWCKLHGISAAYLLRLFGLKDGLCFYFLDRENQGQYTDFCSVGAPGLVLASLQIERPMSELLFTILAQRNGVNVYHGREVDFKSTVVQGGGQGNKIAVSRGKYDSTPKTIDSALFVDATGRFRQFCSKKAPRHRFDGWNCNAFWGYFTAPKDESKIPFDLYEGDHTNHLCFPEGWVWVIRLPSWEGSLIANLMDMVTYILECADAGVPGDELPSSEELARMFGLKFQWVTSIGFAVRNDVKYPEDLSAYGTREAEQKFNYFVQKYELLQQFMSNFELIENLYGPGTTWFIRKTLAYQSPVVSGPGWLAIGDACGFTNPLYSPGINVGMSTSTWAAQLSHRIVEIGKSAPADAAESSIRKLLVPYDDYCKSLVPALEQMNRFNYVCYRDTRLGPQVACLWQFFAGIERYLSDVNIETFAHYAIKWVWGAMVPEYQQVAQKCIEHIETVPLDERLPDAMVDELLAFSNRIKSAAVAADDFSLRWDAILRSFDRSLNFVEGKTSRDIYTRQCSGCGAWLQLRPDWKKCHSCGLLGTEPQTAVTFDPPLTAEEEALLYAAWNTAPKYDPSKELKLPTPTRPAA

Cc1cc2c(cc1C)N(C[C@H](O)[C@H](O)[C@H](O)COP(=O)(O)OP(=O)(O)OC[C@H]1O[C@@H](n3cnc4c(N)ncnc43)[C@H](O)[C@@H]1O)c1[nH]c(=O)[nH]c(=O)c1N2 [FADH2]
LC/MS halogenation assay (MalA): We incubated MalA with its pathway partners (L-Pro and L-Trp MalG, MalE and MalC, NADPH

NC(=O)C1=CN([C@@H]2O[C@H](COP(=O)(O)OP(=O)(O)OC[C@H]3O[C@@H](n4cnc5c(N)ncnc54)[C@H](OP(=O)(O)O)[C@@H]3O)[C@@H](O)[C@H]2O)C=CC1 [NADPH]
LC/MS product formation (MalG R): NADPH was the preferred cofactor in this reaction

NC(=O)c1ccc[n+]([C@@H]2O[C@H](COP(=O)(O)OP(=O)(O)OC[C@H]3O[C@@H](n4cnc5c(N)ncnc54)[C@H](OP(=O)(O)O)[C@@H]3O)[C@@H](O)[C@H]2O)c1 [NADP^+]
X-ray crystal structure, 2.4 Å (PhqE [1]): PhqE crystals grown with NADP^+ showed strong electron density for the cofactor

NC(=O)c1ccc[n+]([C@@H]2O[C@H](COP(=O)(O)OP(=O)(O)OC[C@H]3O[C@@H](n4cnc5c(N)ncnc54)[C@H](O)[C@@H]3O)[C@@H](O)[C@H]2O)c1 [NAD^+]
X-ray crystal structure (PhqE [2]): while NAD^+ showed weak electron density

CC(C)=CCOP(=O)(O)OP(=O)(O)O [dimethylallyl pyrophosphate]
prenyltransferase assay, LC/MS (MalB): whereas MalB displayed modest activity | prenyltransferase assay, LC/MS (MalE): dimethylallyl pyrophosphate (DMAPP), the prenyl donor. MalE readily catalyzed a C2 reverse prenyl transfer
